{"source": "PubChem BioAssay AID2060512", "about": "(Molecular Pharmacology Branch, DTP, NCI, 2025)", "system": "186277-243-T-J2-PDC complex spheroid viability", "test": "Anticancer human tumor 186277-243-T-J2-PDC patient-derived colon adenocarcinoma cell line growth inhibition [GQUAD]", "details": "for pIC50: curve of first compound; for viability, T/C: stronger effect = lower value", "outline": "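Multi-cell-type spheroids of tumor cells with HUVEC and mesenchymal stem cells, treated with drug combinations. Concentrations descend in half-log steps from near clinical Cmax, or from 10 microM where Cmax is unknown; viability read-out.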", "key": {"[1]": {"details": "second compound 0.0316 µM, first compound 0.0316 µM"}, "[2]": {"details": "second compound 0.0316 µM, first compound 0.1 µM"}, "[3]": {"details": "second compound 0.0316 µM, first compound 0.316 µM"}, "[4]": {"details": "second compound 0.0316 µM, first compound 1 µM"}, "[5]": {"details": "second compound 0.0316 µM, first compound 3.16 µM"}, "[6]": {"details": "second compound 0.0316 µM, first compound 10 µM"}, "[7]": {"details": "second compound 0.1 µM, first compound 0.0316 µM"}, "[8]": {"details": "second compound 0.1 µM, first compound 0.1 µM"}, "[9]": {"details": "second compound 0.1 µM, first compound 0.316 µM"}, "[10]": {"details": "second compound 0.1 µM, first compound 1 µM"}, "[11]": {"details": "second compound 0.1 µM, first compound 3.16 µM"}, "[12]": {"details": "second compound 0.1 µM, first compound 10 µM"}, "[13]": {"details": "second compound 0.316 µM, first compound 0.0316 µM"}, "[14]": {"details": "second compound 0.316 µM, first compound 0.1 µM"}, "[15]": {"details": "second compound 0.316 µM, first compound 0.316 µM"}, "[16]": {"details": "second compound 0.316 µM, first compound 1 µM"}, "[17]": {"details": "second compound 0.316 µM, first compound 3.16 µM"}, "[18]": {"details": "second compound 0.316 µM, first compound 10 µM"}, "[19]": {"details": "second compound 1 µM, first compound 0.0316 µM"}, "[20]": {"details": "second compound 1 µM, first compound 0.1 µM"}, "[21]": {"details": "second compound 1 µM, first compound 0.316 µM"}, "[22]": {"details": "second compound 1 µM, first compound 1 µM"}, "[23]": {"details": "second compound 1 µM, first compound 3.16 µM"}, "[24]": {"details": "second compound 1 µM, first compound 10 µM"}, "[25]": {"details": "second compound 3.16 µM, first compound 0.0316 µM"}, "[26]": {"details": "second compound 3.16 µM, first compound 0.1 µM"}, "[27]": {"details": "second compound 3.16 µM, first compound 0.316 µM"}, "[28]": {"details": "second compound 3.16 µM, first compound 1 µM"}, "[29]": {"details": "second compound 3.16 µM, first compound 3.16 µM"}, "[30]": {"details": "second compound 3.16 µM, first compound 10 µM"}, "[31]": {"details": "second compound 10 µM, first compound 0.0316 µM"}, "[32]": {"details": "second compound 10 µM, first compound 0.1 µM"}, "[33]": {"details": "second compound 10 µM, first compound 0.316 µM"}, "[34]": {"details": "second compound 10 µM, first compound 1 µM"}, "[35]": {"details": "second compound 10 µM, first compound 3.16 µM"}, "[36]": {"details": "second compound 10 µM, first compound 10 µM"}}, "note": "pIC50: −log10 of the molar value.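 Further: spheroids exposed to drugs for 7 days.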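 Wherever viability, T/C is given: 100% = DMSO vehicle control viability.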"}
{"smiles": "CCCS(=O)(=O)Nc1ccc(F)c(C(=O)c2c[nH]c3ncc(-c4ccc(Cl)cc4)cc23)c1F", "note": "+ Cc1cnc(CNC(=O)c2c(=O)c3ccc(N4CCCN(C)CC4)nc3n3c2sc2ccccc23)cn1", "values": [{"measurement": "pIC50", "setting": "second compound 0.0316 µM", "result": 5.21}, {"measurement": "pIC50", "setting": "second compound 0.1 µM", "result": 5.31}, {"measurement": "pIC50", "setting": "second compound 0.316 µM", "result": 5.36}, {"measurement": "pIC50", "setting": "second compound 1 µM", "result": "> 7.50"}, {"measurement": "pIC50", "setting": "second compound 3.16 µM", "result": "> 7.50"}, {"measurement": "pIC50", "setting": "second compound 10 µM", "result": "> 7.50"}, {"measurement": "viability, T/C", "setting": "[1]", "result": 113, "unit": "%"}, {"measurement": "viability, T/C", "setting": "[2]", "result": 102, "unit": "%"}, {"measurement": "viability, T/C", "setting": "[3]", "result": 116, "unit": "%"}, {"measurement": "viability, T/C", "setting": "[4]", "result": 95.4, "unit": "%"}, {"measurement": "viability, T/C", "setting": "[5]", "result": 88.3, "unit": "%"}, {"measurement": "viability, T/C", "setting": "[6]", "result": 23.4, "unit": "%"}, {"measurement": "viability, T/C", "setting": "[7]", "result": 79.3, "unit": "%"}, {"measurement": "viability, T/C", "setting": "[8]", "result": 72.4, "unit": "%"}, {"measurement": "viability, T/C", "setting": "[9]", "result": 93.1, "unit": "%"}, {"measurement": "viability, T/C", "setting": "[10]", "result": 74.1, "unit": "%"}, {"measurement": "viability, T/C", "setting": "[11]", "result": 72.3, "unit": "%"}, {"measurement": "viability, T/C", "setting": "[12]", "result": 14.5, "unit": "%"}, {"measurement": "viability, T/C", "setting": "[13]", "result": 63.6, "unit": "%"}, {"measurement": "viability, T/C", "setting": "[14]", "result": 62.3, "unit": "%"}, {"measurement": "viability, T/C", "setting": "[15]", "result": 68.5, "unit": "%"}, {"measurement": "viability, T/C", "setting": "[16]", "result": 59, "unit": "%"}, {"measurement": "viability, T/C", "setting": "[17]", "result": 65.7, "unit": "%"}, {"measurement": "viability, T/C", "setting": "[18]", "result": 16.1, "unit": "%"}, {"measurement": "viability, T/C", "setting": "[19]", "result": 47.7, "unit": "%"}, {"measurement": "viability, T/C", "setting": "[20]", "result": 47, "unit": "%"}, {"measurement": "viability, T/C", "setting": "[21]", "result": 54.8, "unit": "%"}, {"measurement": "viability, T/C", "setting": "[22]", "result": 49.3, "unit": "%"}, {"measurement": "viability, T/C", "setting": "[23]", "result": 47.5, "unit": "%"}, {"measurement": "viability, T/C", "setting": "[24]", "result": 15.8, "unit": "%"}, {"measurement": "viability, T/C", "setting": "[25]", "result": 31.3, "unit": "%"}, {"measurement": "viability, T/C", "setting": "[26]", "result": 43.9, "unit": "%"}, {"measurement": "viability, T/C", "setting": "[27]", "result": 48.8, "unit": "%"}, {"measurement": "viability, T/C", "setting": "[28]", "result": 41, "unit": "%"}, {"measurement": "viability, T/C", "setting": "[29]", "result": 38.3, "unit": "%"}, {"measurement": "viability, T/C", "setting": "[30]", "result": 9.83, "unit": "%"}, {"measurement": "viability, T/C", "setting": "[31]", "result": 47.6, "unit": "%"}, {"measurement": "viability, T/C", "setting": "[32]", "result": 36.8, "unit": "%"}, {"measurement": "viability, T/C", "setting": "[33]", "result": 37.3, "unit": "%"}, {"measurement": "viability, T/C", "setting": "[34]", "result": 40.4, "unit": "%"}, {"measurement": "viability, T/C", "setting": "[35]", "result": 37.8, "unit": "%"}, {"measurement": "viability, T/C", "setting": "[36]", "result": 0.36, "unit": "%"}]}
{"smiles": "COc1ncnc(C2CC2)c1-c1ncc2cnn(Cc3ccc(-c4nc(C(F)(F)F)cn4C(C)C)cc3)c2n1", "note": "+ Cc1cnc(CNC(=O)c2c(=O)c3ccc(N4CCCN(C)CC4)nc3n3c2sc2ccccc23)cn1", "values": [{"measurement": "pIC50", "setting": "second compound 0.0316 µM", "result": "< 5.00"}, {"measurement": "pIC50", "setting": "second compound 0.1 µM", "result": "< 5.00"}, {"measurement": "pIC50", "setting": "second compound 0.316 µM", "result": "< 5.00"}, {"measurement": "pIC50", "setting": "second compound 1 µM", "result": "> 7.50"}, {"measurement": "pIC50", "setting": "second compound 3.16 µM", "result": "> 7.50"}, {"measurement": "pIC50", "setting": "second compound 10 µM", "result": "> 7.50"}, {"measurement": "viability, T/C", "setting": "[1]", "result": 90, "unit": "%"}, {"measurement": "viability, T/C", "setting": "[2]", "result": 73.9, "unit": "%"}, {"measurement": "viability, T/C", "setting": "[3]", "result": 86.6, "unit": "%"}, {"measurement": "viability, T/C", "setting": "[4]", "result": 67, "unit": "%"}, {"measurement": "viability, T/C", "setting": "[5]", "result": 79.1, "unit": "%"}, {"measurement": "viability, T/C", "setting": "[6]", "result": 76.1, "unit": "%"}, {"measurement": "viability, T/C", "setting": "[7]", "result": 67.3, "unit": "%"}, {"measurement": "viability, T/C", "setting": "[8]", "result": 55.1, "unit": "%"}, {"measurement": "viability, T/C", "setting": "[9]", "result": 62.3, "unit": "%"}, {"measurement": "viability, T/C", "setting": "[10]", "result": 51.5, "unit": "%"}, {"measurement": "viability, T/C", "setting": "[11]", "result": 69, "unit": "%"}, {"measurement": "viability, T/C", "setting": "[12]", "result": 62.1, "unit": "%"}, {"measurement": "viability, T/C", "setting": "[13]", "result": 55.5, "unit": "%"}, {"measurement": "viability, T/C", "setting": "[14]", "result": 57.2, "unit": "%"}, {"measurement": "viability, T/C", "setting": "[15]", "result": 61.6, "unit": "%"}, {"measurement": "viability, T/C", "setting": "[16]", "result": 53.1, "unit": "%"}, {"measurement": "viability, T/C", "setting": "[17]", "result": 62.6, "unit": "%"}, {"measurement": "viability, T/C", "setting": "[18]", "result": 48.5, "unit": "%"}, {"measurement": "viability, T/C", "setting": "[19]", "result": 42.4, "unit": "%"}, {"measurement": "viability, T/C", "setting": "[20]", "result": 39.3, "unit": "%"}, {"measurement": "viability, T/C", "setting": "[21]", "result": 38.2, "unit": "%"}, {"measurement": "viability, T/C", "setting": "[22]", "result": 36.1, "unit": "%"}, {"measurement": "viability, T/C", "setting": "[23]", "result": 48.1, "unit": "%"}, {"measurement": "viability, T/C", "setting": "[24]", "result": 33.2, "unit": "%"}, {"measurement": "viability, T/C", "setting": "[25]", "result": 27.5, "unit": "%"}, {"measurement": "viability, T/C", "setting": "[26]", "result": 39.1, "unit": "%"}, {"measurement": "viability, T/C", "setting": "[27]", "result": 43.6, "unit": "%"}, {"measurement": "viability, T/C", "setting": "[28]", "result": 42.6, "unit": "%"}, {"measurement": "viability, T/C", "setting": "[29]", "result": 42.5, "unit": "%"}, {"measurement": "viability, T/C", "setting": "[30]", "result": 37.4, "unit": "%"}, {"measurement": "viability, T/C", "setting": "[31]", "result": 29.4, "unit": "%"}, {"measurement": "viability, T/C", "setting": "[32]", "result": 41.9, "unit": "%"}, {"measurement": "viability, T/C", "setting": "[33]", "result": 34.3, "unit": "%"}, {"measurement": "viability, T/C", "setting": "[34]", "result": 32.9, "unit": "%"}, {"measurement": "viability, T/C", "setting": "[35]", "result": 37.3, "unit": "%"}, {"measurement": "viability, T/C", "setting": "[36]", "result": 32.8, "unit": "%"}]}
